Reference: patent US12036237B2, “Bromide source for use in treating autism spectral disorder” (INSERM (INSTITUT NATIONAL DE LA SANTE ET DE LA RECHERCHE …, priority 2016, dated 2024)
“Also recorded” adds a separate entry of the source.

Legend:
Fmr1−/− mice [1] = assay: Three-chamber social novelty preference test; format: in vivo; conditions: bromide 250 mg/kg i.p. daily
Experimental: (§1) Sodium bromide (anhydrous, Sigma-Aldrich, Saint-Quentin, France) dissolved in saline solution (NaCl, 0.9%) at the dose of 250 or 500 mg/kg, or vehicle (NaCl, 0.9%), was administered intraperitoneally once a day for 19 days in a volume of 20 ml/kg. On testing days, bromide was administered 30 min before behavioural assays. Bumetanide (Tocris, provided by Bio-Techne, Lille, France) dissolved in NaCl 0.9% at the dose of 0.5 mg/kg (Deidda et al, 2015) or vehicle was administered intraperitoneally once a day for 19 days in a volume of 20 ml/kg.
(§2) Behavioural assays started after a week of daily bromide (or bumetanide) treatment.
(§3) Three-chamber social novelty preference test.

Shank3B−/− mice [2] = assay: Three-chamber social novelty preference test; format: in vivo; conditions: bromide 250 mg/kg i.p. daily
Experimental: as §1, §2, §3

Fmr1−/− mice [3] = assay: Y-maze exploration; format: in vivo; conditions: bromide 250 mg/kg i.p. daily
Experimental: as §1, §2

Shank3B−/− mice [4] = assay: Y-maze exploration; format: in vivo; conditions: bromide 250 mg/kg i.p. daily
Experimental: as §1, §2

Oprm1−/− mice = assay: Novelty-suppressed feeding test; conditions: for latency to feed: Oprm1 wild-type and null mice, bromide 250, 500 mg/kg

Which results are given for `[Br-].[Na+]` [bromide, Sodium bromide]?
number of close contacts with the mouse (Fmr1−/− mice [1]; Fmr1 knockout or wild-type): no significant effect; preferential time spent in the compartment with the mouse (Fmr1−/− mice [1]; Fmr1 knockout or wild-type): no significant effect; duration of close contacts with the mouse versus the toy (Fmr1−/− mice [1]; Fmr1−/− mice): increased; also recorded: restored; preference in time spent in close contact with the mouse versus the toy (Fmr1−/− mice [1]; Fmr1−/− mice): increased; also recorded: restored; number of close contacts with the mouse versus the toy (Shank3B−/− mice [2]; Shank3B line): no significant effect; preferential time spent in the compartment with the mouse versus the toy (Shank3B−/− mice [2]; Shank3B line): no significant effect; duration of close contacts with the mouse versus the toy (Shank3B−/− mice [2]; Shank3B−/− mice): increased; also recorded: restored; preference in time spent in close contact with the mouse versus the toy (Shank3B−/− mice [2]; Shank3B−/− mice): increased; also recorded: restored; perseverative same arm returns (cognitive stereotypies) (Fmr1−/− mice [3]): efficiently reduced; also recorded: relieves; also recorded: suppressed; rate of alternate arm returns (Shank3B−/− mice [4]; Shank3B line): not modified; perseverative same arm returns (cognitive stereotypies) (Shank3B−/− mice [4]; Shank3B−/− mice): normalized; also recorded: relieves; also recorded: suppressed; rate of spontaneous alternation (Shank3B−/− mice [4]; Shank3B−/− mice): rescued; food intake in home cage (Oprm1−/− mice; Example 2, Oprm1 mutants): increased food intake in mutants; latency to feed (Oprm1−/− mice; Example 2): drastically reduced; latency to feed (Oprm1−/− mice; Example 2, listed as Bromide): decreased in wild-type, and normalized in mu opioid receptor null mice; gender influence on latency to feed (Oprm1−/− mice; Example 2, bromide 250 mg/kg): more effective in males than in females; dose at which the maximal effect on latency to feed was reached (Oprm1−/− mice; Example 2, female Oprm1 null mice): 500 mg/kg; food intake in home cage (Oprm1−/− mice; Example 2, female wild-type animals, bromide 250 mg): ate more than saline-treated animals; dose at which the maximal effect on latency to feed was reached (Oprm1−/− mice; Example 2, male Oprm1 null mice): 250 mg/kg; feeding latency (Oprm1−/− mice; Oprm1−/− mice, bromide, all three doses (125, 250, 500 mg/kg)): efficiently reduced the feeding latency to wild-type level; also recorded: normalized; behavioural signs of anxiety (overall) (Oprm1−/− mice; Oprm1−/− mice, marble burying and novelty-suppressed feeding, bromide 125, 250, 500 mg/kg): efficiently reduced; also recorded: relieved; food intake back in the home cage (Oprm1−/− mice; wild-type and mutant mice, bromide 125, 250, 500 mg/kg i.p. daily): increased
